The values below come from PMC8745710, “Biological Evaluation and Molecular Docking Studies of Novel 1,3,4-Oxadiazole Derivatives of 4,6-Dimethyl-2-sulfanylpyridine-3-carboxamide” (International Journal of Molecular Sciences, 2022).

The target in one assay is T1, COX-1 (Ovis aries, UniProt P05979).
T1 construct: purchased Cayman Chemical Company, Ann Arbor, MI, USA
T1 sequence (P05979 25-600): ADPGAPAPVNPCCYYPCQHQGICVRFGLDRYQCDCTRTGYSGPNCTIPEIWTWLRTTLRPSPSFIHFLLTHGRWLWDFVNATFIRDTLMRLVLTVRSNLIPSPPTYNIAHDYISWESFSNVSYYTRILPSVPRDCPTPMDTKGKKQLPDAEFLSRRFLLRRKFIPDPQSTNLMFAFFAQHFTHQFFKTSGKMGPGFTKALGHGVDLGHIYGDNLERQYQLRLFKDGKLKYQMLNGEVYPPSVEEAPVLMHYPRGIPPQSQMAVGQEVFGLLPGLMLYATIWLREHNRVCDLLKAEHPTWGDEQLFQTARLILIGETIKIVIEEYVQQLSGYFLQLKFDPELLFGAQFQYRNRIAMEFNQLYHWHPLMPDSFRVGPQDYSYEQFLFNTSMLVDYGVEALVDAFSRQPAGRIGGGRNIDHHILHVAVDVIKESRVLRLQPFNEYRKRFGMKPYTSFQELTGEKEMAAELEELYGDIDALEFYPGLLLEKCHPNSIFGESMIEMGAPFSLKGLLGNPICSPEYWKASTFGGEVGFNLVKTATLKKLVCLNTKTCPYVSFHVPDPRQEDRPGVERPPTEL
The experiment in a line: COX colorimetric inhibitor screening assay, COX-1. Format: biochemical. Particulars: after 2 min of incubation, n = 5; for IC50: read-out: IC50 [µM] ± SD COX-1. The text has this:
(§1) The compounds were studied for their potencies to inhibit COX-1 and COX-2 enzymes by the colorimetric inhibitor screening assay.
(§2) A COX Colorimetric Inhibitor Screening Assay Kit, produced by Cayman Chemical Company, Ann Arbor, MI, USA, was used. It used the colorimetric monitoring of oxidized form of TMPD (N,N,N′,N′-tetramethyl-p-phenylenediamine) which was produced during reduction of prostaglandin G2 (PGG2) to PGH2. […] Reagents used it this assay were: COX-1 and COX-2 enzymes, Tris-HCl buffer, solutions of heme in DMSO and TMPD, arachidonic acid, KOH. To be sure that 100% enzymatic activity was achieved each sample was measured 3 times. The probes were measured after two minutes of incubation with tested compounds in the comparison to the initial activity of enzyme.

For another assay, the target named is T2, COX-2 (Homo sapiens, UniProt P35354).
T2 construct: purchased Cayman Chemical Company, Ann Arbor, MI, USA
T2 sequence (P35354 18-604): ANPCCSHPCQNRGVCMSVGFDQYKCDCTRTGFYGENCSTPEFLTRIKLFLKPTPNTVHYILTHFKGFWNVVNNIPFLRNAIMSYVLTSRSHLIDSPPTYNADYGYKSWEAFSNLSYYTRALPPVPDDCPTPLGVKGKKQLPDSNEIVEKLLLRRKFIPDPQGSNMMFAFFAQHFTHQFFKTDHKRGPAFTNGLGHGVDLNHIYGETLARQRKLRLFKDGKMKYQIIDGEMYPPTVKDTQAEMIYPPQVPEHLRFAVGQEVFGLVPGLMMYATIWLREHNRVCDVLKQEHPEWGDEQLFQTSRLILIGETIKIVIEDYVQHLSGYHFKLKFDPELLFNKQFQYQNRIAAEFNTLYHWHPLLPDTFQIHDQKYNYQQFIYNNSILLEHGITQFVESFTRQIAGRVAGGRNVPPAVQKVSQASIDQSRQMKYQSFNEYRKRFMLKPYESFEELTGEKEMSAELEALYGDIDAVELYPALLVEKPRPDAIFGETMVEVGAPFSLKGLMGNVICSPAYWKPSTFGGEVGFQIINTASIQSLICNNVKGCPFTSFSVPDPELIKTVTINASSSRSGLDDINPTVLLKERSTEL
The experiment in a line: COX colorimetric inhibitor screening assay, COX-2. Format: biochemical. Particulars: for IC50 [µM] ± SD COX-2 / IC50: after 2 min of incubation, n = 5; for IC50: read-out: IC50 [µM] ± SD COX-2; for COX-2/COX-1 Selectivity Ratio: ratio of IC50 COX-2 / IC50 COX-1.
Text: as §1, §2

Assay [1] deals with NHDF (normal human dermal fibroblasts). The experiment in a line: MTT assay, NHDF. Format: cell-based. Particulars: 48 h incubation, read-out: IC50 [µM] ± SD NHDF. An excerpt: (§3) The MTT (3-[4,5-dimethylthiazol-2-yl]-2,5-diphenyl tetrazolium bromide) assay was used to determine the cytotoxicity of tested compounds towards different cell lines: normal human dermal fibroblasts (NHDF), kidney epithelial cells (VERO), fibroblasts from Chinese hamster lung (V79) and four human cancer cells: A549 (pulmonary basal cell alveolar adenocarcinoma), MCF-7 (breast adenocarcinoma), LoVo (colon adenocarcinoma), and its drug resistant subline LoVo/Dx. The cell lines used in this study express COX-1 and COX-2. The LoVo line expressed COX-1, the LoVo/Dx subline express both COX-1 and COX-2 [61].
(§4) Each cell line was grown in the culture media recommended by supplier. Before the test they were detached with trypsin/EDTA solution, then to neutralize the effect of Trypsin/EDTA solution, FBS containing medium was used. After centrifugation the cells were stained with 0.4% solution of trypan blue, counted and inspected for viability using microscope. In the end, cells were inserted into 96-well culture plates and incubated in CO2 incubator (37 °C, 24 h). The number of cells was 2 × 10^3 cells per well. The tested compounds with different concentrations (5, 10, 20, 50, 100 µM) were dissolved in DMSO and then added to the cells (the final DMSO concentration was 0.1%). The cultures were incubated for another 48 h. After that time the cells were collected to be used in tests.
(§5) MTT assay was used to find out how tested compounds influence the metabolic activity of investigated cell lines. The cells were incubated with tested compounds. After removing of supernatant, 1 mg/mL of MTT solution in MEM was added to the plate (to each well) and then the plates were incubated at 37 °C for 2 h. The medium was removed again, and formazan crystals were dissolved in isopropanol. A Varioscan LUX microplate reader (Thermo Fisher Scientific, Waltham, MA, USA) was used to measure absorbance at 570 nm.
In general terms: Formazan colour is commonly taken as a measure of viable cells.

The subject of assay [2] is MCF-7 (breast adenocarcinoma). The experiment in a line: MTT assay, MCF-7. It is filed as cell-based. Particulars: Homo sapiens, MCF7, 48 h incubation, read-out: IC50 [µM] ± SD MCF-7.
Text: as §3, §4, §5

Broadly, the IC50 is the concentration that inhibits the measured activity by half. In the case of `Cc1cc(C)c(C(=O)NCc2nn(CC(=O)NN)c(=S)o2)c(S)n1` [Compound 4, N-{[4-(2-hydrazinyl-2-oxoethyl)-5-sulfanylidene-4,5-dihydro-1,3,4-oxadiazol-2-yl]methyl}-4,6-dimethyl-2-sulfanylpyridine-3-carboxamide], the IC50 on COX-1 was determined as 135 ± 5.99 µM; in assay [1], 57.5 ± 1.22 µM; in assay [2] it was 9.63 ± 1.66 µM. Further, the “IC50 [µM] ± SD COX-2” value at COX-2 is listed as “showed only COX-1 inhibitory activity”.

For the compound `Cc1cc(C)c(C(=O)NCc2nn(CC(=O)NN=Cc3ccccc3)c(=S)o2)c(S)n1` [Compound 5, 4,6-Dimethyl-N-{[4-(2-(2-benzylidenehydrazinyl)-2-oxoethyl)-5-sulfanylidene-4,5-dihydro-1,3,4-oxadiazol-2-yl]methyl}-2-sulfanylpyridine-3-carboxamide], the IC50 at COX-1 came out at 73.9 ± 3.03 µM; at COX-2 it was 187 ± 15.3 µM; in assay [1], 59 ± 1.49 µM; in assay [2] it was 6.37 ± 1.09 µM. For the same compound, the “COX-2/COX-1 Selectivity Ratio” value on COX-2 came out at 2.53.

`Cc1cc(C)c(C(=O)NCc2nn(CC(=O)NN=Cc3ccc(F)cc3)c(=S)o2)c(S)n1` [Compound 6, 4,6-Dimethyl-N-{[4-(2-(2-(4-fluorobenzylidene)hydrazinyl)-2-oxoethyl)-5-sulfanylidene-4,5-dihydro-1,3,4-oxadiazole-2-yl]methyl}-2-sulfanylpyridine-3-carboxamide]: the IC50 is 145 ± 20.9 µM on COX-1, 174 ± 5.84 µM at COX-2, 58.2 ± 0.92 µM in assay [1] and 6.37 ± 0.19 µM in assay [2]. For the same compound, the “COX-2/COX-1 Selectivity Ratio” value on COX-2 came to 1.20.

For `Cc1ccc(C=NNC(=O)Cn2nc(CNC(=O)c3c(C)cc(C)nc3S)oc2=S)cc1` [Compound 7, 4,6-Dimethyl-N-{[4-(2-(2-(4-methylbenzylidene)hydrazinyl)-2-oxoethyl)-5-sulfanylidene-4,5-dihydro-1,3,4-oxadiazole-2-yl]methyl}-2-sulfanylpyridine-3-carboxamide], the IC50 at COX-1 was 148 ± 19.8 µM; on COX-2, 184 ± 18.8 µM; in assay [1], 58.2 ± 2 µM; in assay [2], 6.33 ± 0.56 µM. Besides, the “COX-2/COX-1 Selectivity Ratio” value at COX-2 amounted to 1.25.

Regarding `CSc1ccc(/C=N\NC(=O)Cn2nc(CNC(=O)c3c(C)cc(C)nc3S)oc2=S)cc1` [Compound 8, 4,6-Dimethyl-N-{[4-(2-(2-(4-methysulfanylbenzylidene)hydrazinyl)-2-oxoethyl)-5-sulfanylidene-4,5-dihydro-1,3,4-oxadiazole-2-yl]methyl}-2-sulfanylpyridine-3-carboxamide], the IC50 on COX-1 stood at 157 ± 12.1 µM; in assay [1] it was 58.7 ± 1.94 µM; in assay [2], 9.41 ± 4.8 µM. In addition, at COX-2, the “IC50 [µM] ± SD COX-2” value is on record as “showed only COX-1 inhibitory activity”.

`Cc1cc(C)c(C(=O)NCc2nn(CC(=O)NN=Cc3ccc(C#N)cc3)c(=S)o2)c(S)n1` [Compound 9, 4,6-Dimethyl-N-{[4-(2-(2-(4-cyanobenzylidene)hydrazinyl)-2-oxoethyl)-5-sulfanylidene-4,5-dihydro-1,3,4-oxadiazole-2-yl]methyl}-2-sulfanylpyridine-3-carboxamide]: the IC50 at COX-1 worked out at 154 ± 6.29 µM; on COX-2, 103 ± 10.6 µM; in assay [1] it was 59.4 ± 1.9 µM; in assay [2] it was 8.22 ± 5.98 µM. Also, on COX-2, the “COX-2/COX-1 Selectivity Ratio” value amounted to 0.67.

Turning to `Cc1cc(C)c(C(=O)NCc2nn(CC(=O)NN=Cc3ccc(Cl)cc3)c(=S)o2)c(S)n1` [Compound 10, 4,6-Dimethyl-N-{[4-(2-(2-(4-chlorobenzylidene)hydrazinyl)-2-oxoethyl)-5-sulfanylidene-4,5-dihydro-1,3,4-oxadiazole-2-yl]methyl}-2-sulfanylpyridine-3-carboxamide], the “IC50 [µM] ± SD COX-1” value against COX-1 is on record as “selectively inhibited the activity of COX-2”. In addition, the IC50 on COX-2 is 128 ± 1.87 µM; in assay [1], 59.9 ± 2.04 µM; in assay [2] it was 6.19 ± 0.19 µM.

As for `Cc1cc(C)c(C(=O)NCc2nn(CC(=O)NN=Cc3ccc(C(F)(F)F)cc3)c(=S)o2)c(S)n1` [Compound 11, 4,6-Dimethyl-N-{[4-(2-(2-(4-trifluoromethylbenzylidene)hydrazinyl)-2-oxoethyl)-5-sulfanylidene-4,5-dihydro-1,3,4-oxadiazole-2-yl]methyl}-2-sulfanylpyridine-3-carboxamide], the IC50 on COX-1 worked out at 86.2 ± 2.6 µM; at COX-2 it was 170 ± 19.1 µM; in assay [1] it was 59 ± 3.62 µM; in assay [2], 8.29 ± 4.45 µM. For the same compound, the “COX-2/COX-1 Selectivity Ratio” value on COX-2 is given as 1.97.

`Cc1cc(C)c(C(=O)NCc2nn(CC(=O)NN=Cc3cccc(Cl)c3)c(=S)o2)c(S)n1` [Compound 12, 4,6-Dimethyl-N-{[4-(2-(2-(3-chlorobenzylidene)hydrazinyl)-2-oxoethyl)-5-sulfanylidene-4,5-dihydro-1,3,4-oxadiazole-2-yl]methyl}-2-sulfanylpyridine-3-carboxamide]: the IC50 worked out at 66.8 ± 5.19 µM at COX-1, 90.7 ± 19.6 µM on COX-2, 58.7 ± 2.21 µM in assay [1] and 9.04 ± 2.84 µM in assay [2]. Further, at COX-2, the “COX-2/COX-1 Selectivity Ratio” value is given as 1.36.

With `Cc1cc(C)c(C(=O)NCc2nn(CC(=O)NN=Cc3ccccc3Br)c(=S)o2)c(S)n1` [Compound 13, 4,6-Dimethyl-N-{[4-(2-(2-(2-bromobenzylidene)hydrazinyl)-2-oxoethyl)-5-sulfanylidene-4,5-dihydro-1,3,4-oxadiazole-2-yl]methyl}-2-sulfanylpyridine-3-carboxamide], the half-inhibitory concentration (IC50) on COX-1 was found to be 84.4 ± 5.89 µM; on COX-2 it was 73.2 ± 5.66 µM; in assay [1], 59.3 ± 3.43 µM; in assay [2] it was 7.23 ± 0.49 µM.
